Calls of active or inactive are those of the source. The rule behind the calls is not given here.
Columns and labels:
[1] = biological target: T1, Calcitonin gene-related peptide type 1 receptor (Homo sapiens, UniProt O60894+Q16602); test: (§1) Displacement of [125I]CGRP from human recombinant CGRP receptor
[2] = biological target: T1, Calcitonin gene-related peptide type 1 receptor; test: Activity at CGRP receptor assessed as inhibition of CGRP-stimulated cAMP production; format: functional
[3] = biological target: Calcitonin gene-related peptide type 1 receptor (Homo sapiens) (UniProt Q16602); test: as §1
Sequence of Calcitonin gene-related peptide type 1 receptor (Homo sapiens) (Q16602 whole entry): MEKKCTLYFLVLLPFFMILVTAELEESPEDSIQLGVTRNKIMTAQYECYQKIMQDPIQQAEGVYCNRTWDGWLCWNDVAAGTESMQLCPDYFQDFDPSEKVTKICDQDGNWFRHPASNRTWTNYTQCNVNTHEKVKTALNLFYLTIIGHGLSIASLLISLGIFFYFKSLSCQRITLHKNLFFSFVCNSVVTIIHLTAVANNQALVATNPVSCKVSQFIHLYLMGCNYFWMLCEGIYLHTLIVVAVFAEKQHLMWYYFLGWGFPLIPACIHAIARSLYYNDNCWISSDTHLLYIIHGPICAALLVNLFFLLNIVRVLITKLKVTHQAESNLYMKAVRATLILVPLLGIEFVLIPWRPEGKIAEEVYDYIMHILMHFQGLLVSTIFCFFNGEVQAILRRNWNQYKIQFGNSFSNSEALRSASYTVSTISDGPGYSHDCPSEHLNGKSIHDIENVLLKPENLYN

T1 sequence (Q16602 whole entry, one chain of several): as the sequence (Q16602 whole entry) above

SMILES | Ki [1] [nM] | IC50 [2] [nM] | Activity [3]
O=C(N[C@@H]1N=C(c2ccccc2)c2ccccc2N(CC(F)(F)F)C1=O)N1CCC(n2cc[nH]c2=O)CC1 | 583 | 672 | 
O=C(N[C@@H]1N=C(c2ccccc2)c2ccccc2N(CC(F)(F)F)C1=O)N1CCC(n2cc(-c3ccc(OC(F)F)cc3)nc2O)CC1 | 19 | 74 | 
O=C(N[C@@H]1N=C(c2ccccc2)c2ccccc2N(CC(F)(F)F)C1=O)N1CCC(n2c(=O)[nH]c3c4ccccc4ccc32)CC1 | 27 | 369 | 
O=C(N[C@@H]1N=C(c2ccccc2)c2ccccc2N(CC(F)(F)F)C1=O)N1CCC(n2c(O)nc3c2ccc[n+]3[O-])CC1 | 1000 |  | 
O=C(N[C@@H]1N=C(c2ccccc2)c2ccccc2N(CC(F)(F)F)C1=O)N1CCC(N2Cc3cnccc3NC2=O)CC1 | 320 | 627 | 
O=C(N[C@@H]1N=C(c2ccccc2)c2ccccc2N(CC(F)(F)F)C1=O)N1CCC(n2c(=O)[nH]c3ncncc32)CC1 | 51 | 430 | 
O=C(N[C@@H]1N=C(c2ccccc2)c2ccccc2N(CC(F)(F)F)C1=O)N1CCC(n2c(O)nc3cc(C(F)(F)F)ccc32)CC1 | 3800 |  | 
O=C(N[C@@H]1N=C(c2ccccc2)c2ccccc2N(CC(F)(F)F)C1=O)N1CCC(N2CCNC2=O)CC1 | 855 | 3100 | 
O=C1CN(C2CCN(C(=O)N[C@@H]3N=C(c4ccccc4)c4ccccc4N(CC(F)(F)F)C3=O)CC2)C(=O)N1 | 29 | 100 | 
O=C(O)c1ccc2c(c1)[nH]c(=O)n2C1CCN(C(=O)N[C@@H]2N=C(c3ccccc3)c3ccccc3N(CC(F)(F)F)C2=O)CC1 | 810 | 715 | 
O=C(N[C@@H]1N=C(c2ccccc2)c2ccccc2N(CC(F)(F)F)C1=O)N1CCC(n2cc(-c3ccccc3)[nH]c2=O)CC1 | 11 | 14 | 
O=C(N[C@@H]1N=C(c2ccccc2)c2ccccc2N(CC(F)(F)F)C1=O)N1CCC(N2Cc3ncccc3NC2=O)CC1 | 965 | 1840 | 
O=C(N[C@@H]1N=C(c2ccccc2)c2ccccc2N(CC(F)(F)F)C1=O)N1CCC(n2c(=O)[nH]c3ccncc32)CC1 | 853 | 1400 | 
O=C(N[C@@H]1N=C(c2ccccc2)c2ccccc2N(CC(F)(F)F)C1=O)N1CCC(N2Cc3ccncc3NC2=O)CC1 | 350 | 224 | 
COc1ccc(-c2cn(C3CCN(C(=O)N[C@@H]4N=C(c5ccccc5)c5ccccc5N(CC(F)(F)F)C4=O)CC3)c(=O)[nH]2)cc1 | 205 | 193 | 
O=C(N[C@@H]1N=C(c2ccccc2)c2ccccc2N(CC(F)(F)F)C1=O)N1CCC(N2C(=O)NCc3ccccc32)CC1 |  |  | inactive
O=C(N[C@@H]1N=C(c2ccccc2)c2ccccc2N(CC(F)(F)F)C1=O)N1CCC(N2CC(c3cccnc3)NC2=O)CC1 (stereo partly specified) | 1050 |  | 
Cc1ccc2c(c1)[nH]c(=O)n2C1CCN(C(=O)N[C@@H]2N=C(c3ccccc3)c3ccccc3N(CC(F)(F)F)C2=O)CC1 | 6100 |  | 
O=C(N[C@@H]1N=C(c2ccccc2)c2ccccc2N(CC(F)(F)F)C1=O)N1CCC(N2Cc3cccnc3NC2=O)CC1 | 295 | 616 | 
O=C(N[C@@H]1N=C(c2ccccc2)c2ccccc2N(CC(F)(F)F)C1=O)N1CCC(n2cc(-c3cccc(F)c3)nc2O)CC1 | 11 | 46 | 
Cc1cccc2nc(O)n(C3CCN(C(=O)N[C@@H]4N=C(c5ccccc5)c5ccccc5N(CC(F)(F)F)C4=O)CC3)c12 | 20000 |  | 
O=C(N[C@@H]1N=C(c2ccccc2)c2ccccc2N(CC(F)(F)F)C1=O)N1CCC(n2cc(-c3ccc(F)cc3)[nH]c2=O)CC1 | 11 | 107 | 
O=C(N[C@@H]1N=C(c2ccccc2)c2ccccc2N(CC(F)(F)F)C1=O)N1CCC(N2Cc3ccccc3NC2=O)CC1 | 48 | 34 | 
O=C(N[C@@H]1N=C(c2ccccc2)c2ccccc2N(CC(F)(F)F)C1=O)N1CCC(n2c(=O)[nH]c3cccnc32)CC1 | 427 | 1140 | 
O=C(N[C@@H]1N=C(c2ccccc2)c2ccccc2N(CC(F)(F)F)C1=O)N1CCC(n2c(=O)[nH]c3ccc(F)cc32)CC1 | 983 | 1400 | 
Cc1cccc2c1nc(O)n2C1CCN(C(=O)N[C@@H]2N=C(c3ccccc3)c3ccccc3N(CC(F)(F)F)C2=O)CC1 | 6900 |  | 

SMILES | Ki [1] [nM] | IC50 [2] [nM] | Activity [3]
O=C(N[C@@H]1N=C(c2ccccc2)c2ccccc2N(CC(F)(F)F)C1=O)N1CCC(n2c(=O)[nH]c3ccccc32)CC1 | 2250 |  | 
NC(=O)c1ccc2c(c1)[nH]c(=O)n2C1CCN(C(=O)N[C@@H]2N=C(c3ccccc3)c3ccccc3N(CC(F)(F)F)C2=O)CC1 | 1050 |  | 
O=C(N[C@@H]1N=C(c2ccccc2)c2ccccc2N(CC(F)(F)F)C1=O)N1CCC(n2c(O)nc3c(F)cccc32)CC1 | 375 | 373 | 
O=C(N[C@@H]1N=C(c2ccccc2)c2ccccc2N(CC(F)(F)F)C1=O)N1CCC(n2c(O)nc3cc(Cl)ccc32)CC1 | > 10000 |  | 
O=C(N[C@@H]1N=C(c2ccccc2)c2ccccc2N(CC(F)(F)F)C1=O)N1CCC(N2CC(c3ccccc3)NC2=O)CC1 (stereo partly specified) | 339 | 790 | 
COC(=O)c1cn(C2CCN(C(=O)N[C@@H]3N=C(c4ccccc4)c4ccccc4N(CC(F)(F)F)C3=O)CC2)c(=O)[nH]1 | 110 | 156 | 
CC(C)c1cn(C2CCN(C(=O)N[C@@H]3N=C(c4ccccc4)c4ccccc4N(CC(F)(F)F)C3=O)CC2)c(=O)[nH]1 | 5340 |  | 
O=C(N[C@@H]1N=C(c2ccccc2)c2ccccc2N(CC(F)(F)F)C1=O)N1CCC(n2cc(Cc3ccccc3)[nH]c2=O)CC1 | 1130 | 450 | 
O=C(N[C@@H]1N=C(c2ccccc2)c2ccccc2N(CC(F)(F)F)C1=O)N1CCC(n2c(O)nc3cccc(Cl)c32)CC1 | 6400 |  | 
COc1cccc(-c2cn(C3CCN(C(=O)N[C@@H]4N=C(c5ccccc5)c5ccccc5N(CC(F)(F)F)C4=O)CC3)c(O)n2)c1 | 1.1 | 5.1 | 
O=C(N[C@@H]1N=C(c2ccccc2)c2ccccc2N(CC(F)(F)F)C1=O)N1CCC(n2c(=O)[nH]c3nccnc32)CC1 | 156 | 286 | 
O=C(N[C@@H]1N=C(c2ccccc2)c2ccccc2N(CC(F)(F)F)C1=O)N1CCC(n2c(O)nc3c(Cl)cccc32)CC1 | 143 | 446 | 
Cc1ccc(-c2cn(C3CCN(C(=O)N[C@@H]4N=C(c5ccccc5)c5ccccc5N(CC(F)(F)F)C4=O)CC3)c(=O)[nH]2)cc1 | 6.3 | 85 | 
O=C(N[C@@H]1N=C(c2ccccc2)c2ccccc2N(CC(F)(F)F)C1=O)N1CCC(n2nc(-c3ccccc3)[nH]c2=O)CC1 | 26 | 100 | 
CS(=O)(=O)c1ccc2c(c1)[nH]c(=O)n2C1CCN(C(=O)N[C@@H]2N=C(c3ccccc3)c3ccccc3N(CC(F)(F)F)C2=O)CC1 | 260 | 220 | 
O=C(N[C@@H]1N=C(c2ccccc2)c2ccccc2N(CC(F)(F)F)C1=O)N1CCC(n2c(=O)[nH]c3cnccc32)CC1 | 685 | 1380 | 
O=C(N[C@@H]1N=C(c2ccccc2)c2ccccc2N(CC(F)(F)F)C1=O)N1CCC(n2cc(CO)[nH]c2=O)CC1 | 20000 |  | 
O=C(N[C@@H]1N=C(c2ccccc2)c2ccccc2N(CC(F)(F)F)C1=O)N1CCC(n2cc(-c3ccc(OC(F)(F)F)cc3)[nH]c2=O)CC1 | 104 | 431 | 
O=C(N[C@@H]1N=C(c2ccccc2)c2ccccc2N(CC(F)(F)F)C1=O)N1CCC(N2CC(c3ccncc3)NC2=O)CC1 (stereo partly specified) | 720 | 804 | 
N#Cc1cn(C2CCN(C(=O)N[C@@H]3N=C(c4ccccc4)c4ccccc4N(CC(F)(F)F)C3=O)CC2)c(=O)[nH]1 | 575 | 990 | 
O=C(N[C@@H]1N=C(c2ccccc2)c2ccccc2N(CC(F)(F)F)C1=O)N1CCC(N2CC(c3ccccn3)NC2=O)CC1 (stereo partly specified) | 2000 |  | 
O=C(N[C@@H]1N=C(c2ccccc2)c2ccccc2N(CC(F)(F)F)C1=O)N1CCC(n2cc(-c3ccccn3)[nH]c2=O)CC1 | 27 | 37 | 
O=C(N[C@@H]1N=C(c2ccccc2)c2ccccc2N(CC(F)(F)F)C1=O)N1CCC(n2c(=O)[nH]c3ncccc32)CC1 | 23 | 49 | 
O=C(N[C@@H]1N=C(c2ccccc2)c2ccccc2N(CC(F)(F)F)C1=O)N1CCC(n2c(O)nc3cc(F)ccc32)CC1 | 2800 |  | 
O=C(O)c1cn(C2CCN(C(=O)N[C@@H]3N=C(c4ccccc4)c4ccccc4N(CC(F)(F)F)C3=O)CC2)c(=O)[nH]1 | 2900 |  | 
